By IC50 is commonly meant the concentration that gives 50% inhibition.

Experiment [1] has as its target IL-23 mediated signalling (Homo sapiens, UniProt Q5VWK5). As to the kind of experiment: Functional inhibition of IL-23 mediated STAT3 signalling (phospho-STAT3 MSD) in DB cells. The note with it: DB cells, hIL-23 at EC80. Type of experiment: cell-based. The procedure, abridged:
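DB cells preincubated with inhibitor 15 min at 37 °C, then stimulated 90 min with EC80 human IL-23; lysate phospho-STAT3 measured by MSD electrochemiluminescence. Signal normalized to IL-23-alone and buffer controls; IC50 and maximal % inhibition from 4-parameter logistic fit.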

Another experiment addresses T1, human IL-23R (Homo sapiens, UniProt Q5VWK5).
T1 sequence (Q5VWK5 22-629): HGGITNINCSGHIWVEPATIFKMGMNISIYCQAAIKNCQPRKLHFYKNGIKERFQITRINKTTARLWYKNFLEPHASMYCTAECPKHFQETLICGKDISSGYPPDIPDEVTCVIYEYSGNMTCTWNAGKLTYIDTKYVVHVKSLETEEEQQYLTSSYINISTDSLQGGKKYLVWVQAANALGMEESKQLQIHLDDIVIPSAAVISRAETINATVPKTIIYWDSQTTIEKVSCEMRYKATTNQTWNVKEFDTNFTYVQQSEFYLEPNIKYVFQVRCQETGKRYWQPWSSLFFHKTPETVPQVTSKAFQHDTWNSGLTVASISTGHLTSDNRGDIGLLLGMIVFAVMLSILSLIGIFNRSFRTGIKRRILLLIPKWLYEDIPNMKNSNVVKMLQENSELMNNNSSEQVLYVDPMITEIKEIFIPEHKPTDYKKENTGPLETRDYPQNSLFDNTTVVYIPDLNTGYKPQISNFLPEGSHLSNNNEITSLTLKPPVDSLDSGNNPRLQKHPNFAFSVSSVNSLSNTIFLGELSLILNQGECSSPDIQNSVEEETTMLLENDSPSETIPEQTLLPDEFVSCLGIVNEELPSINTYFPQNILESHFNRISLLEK
Put plainly: biochemical. The procedure, abridged: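 Membranes from HEK293 cells stably expressing Nluc-tagged human IL-23R were incubated 2 h at room temperature with test compound and a fluorophore-labelled tracer. After substrate addition, loss of BRET (TAMRA over luciferase emission) reported tracer displacement. A 4PL fit gave IC50 values.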

As to `CC(C)C[C@]1(C)NC(=O)[C@H](Cc2ccc3ccccc3c2)NC(=O)[C@H](Cc2ccc(OCCN)cc2)NC(=O)[C@@H]2CCC(=O)N[C@H](CCCCNC(=O)CC[C@@H](C(=O)N[C@@H](CCN)C(=O)N[C@@H](Cc3cccnc3)C(N)=O)NC1=O)C(=O)N[C@@H]([C@@H](C)O)C(=O)N[C@@H](C(C)C)C(=O)N[C@@H](Cc1c[nH]c3ccccc13)C(=O)N[C@@H](CCC(N)=O)C(=O)N2` [Compound 1, [{d}K](1c)(6c)^†TVWQE(6c)[Y(2-aminoethoxy)][2-Nal][2-Me-Leu]E(1c)[Dab][3-(3-Pyridyl)-Ala]-[NH2]], the IC50 in experiment [1] (SAR tables 2-1 to 2-7, read-out: IC50 (pSTAT3)) stood at 0.23 nM. Also, the Emax in experiment [1] (Table 3-2, maximal inhibitory response, read-out: hIL-23 (pSTAT3) antagonist % inhibition) stood at 102%. Moreover, at human IL-23R, the “% displacement (hIL-23R NIuc)” value is reported as 103% and inhibition was half-maximal at 0.04 nM (IC50).

Source of the values: patent publication EP4471048A1, “PEPTIDE INHIBITORS OF INTERLEUKIN-23 RECEPTOR” (Zealand Pharma A/S, priority 2023, dated 2024).
